Laboratory results as given in patent publication US9241991B2, “Agents, compositions, and methods for treating pruritus and related skin conditions” (The Brigham and Women's Hospital, Inc., priority 2010, dated 2016).

Columns and labels:
TLR7 [1] = biological target: T1, TLR7 (Mus musculus, UniProt P58681); test: Patch clamp recording of inward currents and action potentials in small DRG neurons, TLR7 ligands; assay type: cell-based, mice
T1 construct: We found functional TLR7 receptors in small-size DRG neurons; from tissue; host or cells: small DRG neurons of mice; nape and cheek skin of live mice (C57BL/6J background, CD1)
T1 sequence (P58681 27-1050): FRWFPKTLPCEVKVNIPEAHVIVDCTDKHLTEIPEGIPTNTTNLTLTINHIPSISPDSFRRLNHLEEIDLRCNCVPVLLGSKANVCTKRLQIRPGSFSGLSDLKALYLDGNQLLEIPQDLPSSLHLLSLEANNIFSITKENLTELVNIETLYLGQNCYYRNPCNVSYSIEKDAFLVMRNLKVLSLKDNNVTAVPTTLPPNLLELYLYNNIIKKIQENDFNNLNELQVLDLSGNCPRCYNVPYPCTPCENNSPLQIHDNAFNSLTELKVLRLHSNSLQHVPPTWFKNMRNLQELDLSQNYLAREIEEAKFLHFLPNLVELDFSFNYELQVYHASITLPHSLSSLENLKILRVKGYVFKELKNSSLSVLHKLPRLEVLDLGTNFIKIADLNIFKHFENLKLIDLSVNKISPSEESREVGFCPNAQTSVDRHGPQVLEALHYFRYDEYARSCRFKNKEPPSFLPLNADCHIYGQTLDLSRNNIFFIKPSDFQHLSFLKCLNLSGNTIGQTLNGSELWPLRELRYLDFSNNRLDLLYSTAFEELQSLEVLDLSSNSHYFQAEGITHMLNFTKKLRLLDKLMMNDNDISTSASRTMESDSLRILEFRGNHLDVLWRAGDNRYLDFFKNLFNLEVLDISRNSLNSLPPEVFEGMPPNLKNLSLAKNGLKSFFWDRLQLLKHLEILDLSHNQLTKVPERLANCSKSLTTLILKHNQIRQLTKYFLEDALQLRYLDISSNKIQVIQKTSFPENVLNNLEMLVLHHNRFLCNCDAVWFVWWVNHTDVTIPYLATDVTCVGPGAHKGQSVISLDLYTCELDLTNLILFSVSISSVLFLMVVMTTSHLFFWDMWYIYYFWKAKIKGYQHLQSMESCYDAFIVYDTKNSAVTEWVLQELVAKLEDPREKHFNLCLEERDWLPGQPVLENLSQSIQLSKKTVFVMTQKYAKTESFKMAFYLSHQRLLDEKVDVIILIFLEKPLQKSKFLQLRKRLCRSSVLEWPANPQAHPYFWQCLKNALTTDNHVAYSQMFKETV

TLR7 [2] = test: Scratches after intradermal injection in the nape of the neck, WT and Tlr7-/- mice; assay type: in vivo
From the text: We next evaluated whether TLR7 plays a role in itch sensation. We counted the number of scratches (bouts) by a hindpaw of mouse following intradermal injection of pruritogenic agents in the nape of the neck.

TLR7 [3] = biological target: T1, TLR7; test: Cheek model of itch versus pain, TLR7 ligands; assay type: in vivo, mice; details: 20 μg intradermal into the cheek
Procedure: To distinguish itch and pain responses simultaneously, we used the cheek model by injection of chemical into cheek of mice (8). After brief anesthesia with isoflurane, we shaved mice on cheeks (approx. 5×8 mm area) two days before experiments. On the day of experiment, we injected 10 μl of reagent (50 μg compound 48/80 or 100 μg chloroquine) into the cheek and counted the number of wipes and the number of scratches for 30 min. We only counted those unilateral wipes with the forelimb that were not part of grooming behavior. One scratch was defined as a lifting of the hind paw toward the injection site on the cheek and then returning the paw to the floor or to the mouth.
To further investigate a unique role of TLR7 in itch versus pain, we used a recently developed “cheek model” of itch (Shimada, S. G. & LaMotte, R. H. Pain 139, 681-687 (2008)).

mice = test: Imiquimod-induced scratching in Trpv1-/- and mast cell-deficient SASH mice; assay type: in vivo
TLR7 [4] = biological target: T2, TLR7 (Homo sapiens, UniProt Q9NYK1); details: cited from earlier work
T2 construct: host or cells: human skin, clinical use (Madan et al. 2010)
T2 sequence (Q9NYK1 27-1049): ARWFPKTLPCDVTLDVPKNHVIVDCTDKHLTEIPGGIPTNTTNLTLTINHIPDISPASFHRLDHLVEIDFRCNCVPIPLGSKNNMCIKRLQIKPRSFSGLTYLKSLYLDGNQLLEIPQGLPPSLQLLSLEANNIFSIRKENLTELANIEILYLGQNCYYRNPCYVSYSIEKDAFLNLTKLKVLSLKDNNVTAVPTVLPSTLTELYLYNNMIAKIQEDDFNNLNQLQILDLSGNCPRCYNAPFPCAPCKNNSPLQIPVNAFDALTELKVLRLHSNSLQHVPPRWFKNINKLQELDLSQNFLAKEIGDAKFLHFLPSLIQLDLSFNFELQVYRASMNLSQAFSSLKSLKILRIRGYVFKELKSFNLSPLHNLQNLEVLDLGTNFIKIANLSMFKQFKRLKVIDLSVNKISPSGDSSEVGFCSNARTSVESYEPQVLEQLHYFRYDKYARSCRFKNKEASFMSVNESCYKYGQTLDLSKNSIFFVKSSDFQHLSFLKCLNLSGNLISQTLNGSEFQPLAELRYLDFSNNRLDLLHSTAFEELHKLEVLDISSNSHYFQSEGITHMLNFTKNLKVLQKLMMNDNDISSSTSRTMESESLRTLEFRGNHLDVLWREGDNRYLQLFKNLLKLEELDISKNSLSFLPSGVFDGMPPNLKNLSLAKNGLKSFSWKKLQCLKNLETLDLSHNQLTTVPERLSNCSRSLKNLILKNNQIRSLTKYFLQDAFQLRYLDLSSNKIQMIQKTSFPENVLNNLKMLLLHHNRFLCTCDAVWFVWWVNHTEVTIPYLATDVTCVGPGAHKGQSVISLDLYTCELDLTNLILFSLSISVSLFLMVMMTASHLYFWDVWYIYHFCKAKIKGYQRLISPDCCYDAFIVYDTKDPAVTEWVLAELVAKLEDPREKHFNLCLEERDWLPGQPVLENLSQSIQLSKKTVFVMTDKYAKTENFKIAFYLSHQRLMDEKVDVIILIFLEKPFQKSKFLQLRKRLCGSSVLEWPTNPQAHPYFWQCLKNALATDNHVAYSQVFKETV

TLR7 [5] = biological target: T1, TLR7; details: mice; cited from earlier work
TLR7 [6] = test: IMQ-induced scratches after intrathecal TLR7 siRNA; assay type: in vivo; details: siRNA 4 μg intrathecal with PEI 48 and 24 h before IMQ (20 mg, 20 μg elsewhere in the source), CD1 mice, vs NT siRNA; P<0.05
Procedure: (§1) 4 μg siRNA targeting TLR7 ([…] (SEQ ID NO:8)) (synthesized by Dharmacon, On-target Plus) or a non-targeting control siRNA ([…] (SEQ ID NO:9)) was administered intrathecallly to wild type (CD1) mice at 24 and 48 hours before the mice received an injection of IMQ ([…]). siRNA was dissolved in RNase-free water at 1 μg/μl as stock solution and mixed with polyethyleneimine (PEI, Fermentas Inc. Hanover, USA, 0.18 μl of PEI solution for 1 μg of siRNA), 10 minutes before injection, to increase cell membrane penetration and reduce the degradation. PEI was dissolved in 5% glucose. After behavioral testing, DRG tissues were collected for quantitative PCR analysis.

TLR7 mRNA = TLR7 mRNA levels in cervical DRGs by quantitative PCR after siRNA; assay type: in vivo, mice; details: siRNA 4 μg intrathecal, P<0.05
Procedure: as §1

neurons from WT mice that respond (TLR7 [1]; 500 μM, small DRG neurons) | action potentials in DRG neurons (TLR7 [1]; WT but not Tlr7-/- mice, 500 μM) | response of neurons from Tlr7-/- mice (TLR7 [1]; all 10 neurons) | inward currents in DRG neurons (TLR7 [1]; capsaicin-responsive DRG neurons of WT but not Tlr7-/- mice, imiquimod 20-500 μM) | itch-like scratching in cheek model (TLR7 [3]) | pain-indicative wiping in cheek model (TLR7 [3]) | Compound | dose response curve of scratching (TLR7 [2]; intradermal injection, nape) | scratches in Tlr7-/- mice versus WT (TLR7 [2]; intradermal, 100 μg) | reduction in imiquimod-induced scratching in mast cell-deficient SASH mice (mice; SASH mice vs WT control) | imiquimod-induced scratching in Trpv1-/- mice (mice; Trpv1-/- vs WT control) | pruritus on topical application (TLR7 [4]) | skin inflammation (TLR7 [5]) | IMQ induced scratches (TLR7 [6]) | TLR7 mRNA levels in cervical DRGs (TLR7 mRNA)
Eight out of 17 | induced action potentials | fail to respond | dose-dependent inward currents | elicited itch-like scratching | not pain-indicative wiping behavior | CC(C)Cn1cnc2c(N)nc3ccccc3c21 [imiquimod] | inverted-U-shaped dose response curve | reduced | 28% | remained unaltered | frequently elicits pruritus | induces psoriasis-like skin inflammation |  | 
 |  |  |  |  |  | TLR7 siRNA: siRNA targeting TLR7 (CCUUACACUAUUUCCGAUA, SEQ ID NO:8), synthesized by Dharmacon, On-target Plus (chemistry not given here) |  |  |  |  |  |  | significantly reduced | reduced levels
